The values below come from patent publication US6534524B1, “Indazole compounds and pharmaceutical compositions for inhibiting protein kinases, and methods for their use” (Agouron Pharmaceuticals, Inc., priority 1999, dated 2003).

Like-named read-outs stand apart in the source and are kept apart here.

Series [1] addresses unphosphorylated VEGF-R2Δ50 (FLVK) (Homo sapiens, UniProt P35968, DEL940-989/E990V). The series can be described thus: VEGF-R2 coupled spectrophotometric assay, unphosphorylated VEGF-R2Δ50 (FLVK). To be noted: for Ki: FLVK Ki, Table 1; for inhibition at 0.05 µM: read-out: FLVK % inhibition.
A short description of series [2]: Determination of inhibitor concentration in mouse plasma after intraperitoneal and oral dosing. The series is classed as in vivo. Here is the method: Blood collection was via ocular bleed at 0.5, 1, 4 hr with the final time point, 7 hour, via intracardiac puncture. The blood was centrifuged to collect plasma, which was then stored at −80° C. until analysis. Samples were prepared for analysis using an internal standard and sodium hydroxide. After vortexing, ethyl acetate was added and mixed for 15-20 minutes at ambient temperature. […] The samples were then analyzed via HPLC or LC-MS. Compound levels were quantitated by generating a standard curve of known compound concentration in mouse plasma.

Series [3] has as its system human umbilical vein endothelial cells (HUVEC). The series can be described thus: HUVEC proliferation assay (VEGF-stimulated, MTT). The series is classed as cell-based. To be noted: Homo sapiens, HUVEC, + albumin; read-out: HUVEC + albumin IC50.
The mark [4] stands for this setting: IP, 25 mg/kg, vehicle PEG400:H2O pH 2.3 30:70.
The mark [5] stands for this setting: PO, 50 mg/kg, vehicle PEG400:H2O pH 2.3 30:70.
Setting [6] is: female, IP, 25 mg/kg, vehicle PEG400:H2O pH 2.3 30:70.
Where [7] appears, read: female, IP, 25 mg/kg, vehicle PEG400:H2O pH 2.3 30:70, read-out: Cmin (7 hr conc.).
[8] abbreviates: female, PO, 50 mg/kg, vehicle PEG400:H2O pH 2.3 30:70, read-out: Cmin (7 hr conc.).
Setting [9] is: female, PO, 25 mg/kg, vehicle PEG400:H2O pH 2.3 30:70, read-out: Cmin (7 hr conc.).
Setting [10] is: PO, 25 mg/kg, vehicle PEG400:H2O pH 2.3 30:70.
Where [11] appears, read: IP, 25 mg/kg, vehicle PEG400:H2O pH 2.3 60:40.
Setting [12] is: PO, 50 mg/kg, vehicle PEG400:H2O pH 2.3 60:40.
Setting [13] is: female, IP, 25 mg/kg, vehicle PEG400:H2O pH 2.3 60:40, read-out: Cmin (7 hr conc.).
Setting [14] is: female, PO, 50 mg/kg, vehicle PEG400:H2O pH 2.3 60:40, read-out: Cmin (7 hr conc.).

Sequence of unphosphorylated VEGF-R2Δ50 (FLVK) (P35968 with tags, fused parts or gaps DEL940-989/E990V limits assumed): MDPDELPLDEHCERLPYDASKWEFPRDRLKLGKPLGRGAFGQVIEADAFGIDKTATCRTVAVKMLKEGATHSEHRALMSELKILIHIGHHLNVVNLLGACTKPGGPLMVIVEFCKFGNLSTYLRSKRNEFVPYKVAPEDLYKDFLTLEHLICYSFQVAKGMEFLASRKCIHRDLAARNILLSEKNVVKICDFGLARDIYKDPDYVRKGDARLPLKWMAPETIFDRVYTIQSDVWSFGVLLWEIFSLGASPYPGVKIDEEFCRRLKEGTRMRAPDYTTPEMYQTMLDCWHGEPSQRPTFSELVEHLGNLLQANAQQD

Regarding `C=C(c1cccc(N)c1)c1ccc2c(/C=C/c3ccccc3)n[nH]c2c1` [Example 21, 6-(1-(3-Aminophenyl)-vinyl)-3-styryl-1H-indazole], affinity in series [1] was put at a Ki of 4.6 nM.

Consider `C=C(c1cccc(NC(=O)OCc2ccccc2)c1)c1ccc2c(/C=C/c3ccccc3)n[nH]c2c1` [Example 22(c)], for which the inhibitory constant (Ki) in series [1] was 0.64 nM.

On to `O=C(Nc1cccc(Oc2ccc3c(/C=C/c4ccccc4)n[nH]c3c2)c1)c1cccc2[nH]ccc12` [Example 30(d), 6-[3-(indol-4-ylcarboxamido)phenoxy]-3-E-stryrylindazole], for which the Ki in series [1] turned out to be 0.37 nM.

Compound `CCn1nc(C)cc1C(=O)Nc1cccc(Oc2ccc3c(/C=C/c4ccccc4)n[nH]c3c2)c1` [Example 30(e), 6-[3-((1-Ethyl-3-methyl-1H-pyrazol-5-yl)carboxamido)phenoxy]-3-E-stryrylindazole] showed a Ki in series [1] of 0.37 nM.

In series [1], `Cc1cc(C(=O)Nc2cccc(Oc3ccc4c(/C=C/c5ccccn5)n[nH]c4c3)c2)nn1C` [Example 31(b), 6-[3-((1,5-Dimethyl-1H-pyrazol-3-yl)carboxamido)phenoxy]-3-E-[2-(pyridin-2-yl)ethenyl]-1H-indazole] registered a Ki of under 0.1 nM. For the same compound, the “plasma half-life (T1/2)” value turned out to be 1.7 h in series [2] (setting [4]) and 1.0 h in series [2] (setting [5]). The same compound gave an AUClast in series [2] (setting [5]) of 2071 ng·h/mL. In series [2] (setting [6]), this compound had an AUC(0-t) of over 7040 ng·h/mL. Besides, the concentration at 7 h in series [2] (setting [7]) amounted to 177 ng/mL; in series [2] (setting [8]), 15 ng/mL.

In series [1], `O=C(Nc1cccc(Oc2ccc3c(/C=C/c4c[nH]cn4)n[nH]c3c2)c1)c1ccccc1` [Example 32(a), 6-[3-Benzamidophenoxy]-3-E-[2-(1H-imidazol-4-yl)ethenyl]-1H-indazole] registered a Ki of under 0.1 nM. Moreover, in series [2] (setting [5]), the AUClast turned out to be 4190 ng·h/mL. Further, the AUC(0-t) in series [2] (setting [6]) is over 20600 ng·h/mL; in series [2] (female, PO, 25 mg/kg, vehicle PEG400:H2O pH 2.3 30:70), 490 ng·h/mL. In addition, the concentration at 7 h in series [2] (setting [7]) stood at 1270 ng/mL; in series [2] (setting [9]) it was 18 ng/mL; in series [2] (setting [8]), 40 ng/mL.

The compound `CCn1nc(C)cc1C(=O)Nc1cccc(Oc2ccc3c(/C=C/c4c[nH]cn4)n[nH]c3c2)c1` [Example 32(b), 6-[3-((1-Ethyl-3-methyl-1H-pyrazol-5-yl)carboxamido)phenoxy]-3-E-[2-(1H-imidazol-4-yl)ethenyl]-1H-indazole] came in with a Ki in series [1] of 0.08 nM.

Regarding `CCn1nc(C)cc1C(=O)Nc1cccc(Oc2ccc3c(/C=C/c4c[nH]c(C)n4)n[nH]c3c2)c1` [Example 32(c), 6-[3-((1-Ethyl-3-methyl-1H-pyrazol-5-yl)carboxamido)phenoxy]-3-E-[2-(2-methylimidazol-4-yl)ethenyl]-1H-indazole], the inhibition constant (Ki) in series [1] came out at 0.27 nM. Moreover, in series [2] (setting [10]), the AUClast is 388 ng·h/mL, the Cmax worked out at 161 ng/mL and the “plasma half-life (T1/2)” value was 2.4 h. Further, in series [2] (setting [9]), the concentration at 7 h came to 10 ng/mL.

As to `O=C(NOCc1ccccc1)c1ccccc1Sc1ccc2c(/C=C/c3ccccn3)n[nH]c2c1` [Example 35(i), 6-[2-(Benzyloxycarbamoyl)phenylsulfanyl]-3-E-[2-(pyridin-2-yl)ethenyl]-1H-indazole], in series [1], the inhibition at 0.05 µM was 100%. Besides, in series [3], the IC50 was 4.7 nM.

In the case of `NNC(=O)c1ccccc1Sc1ccc2c(/C=C/c3ccccn3)n[nH]c2c1` [Example 35(ii), 6-[2-(Aminocarbamoyl)phenylsulfanyl]-3-E-[2-(pyridin-2-yl)ethenyl]-1H-indazole], the inhibition at 0.05 µM in series [1] was 44%.

`Nc1ccc(CNC(=O)c2ccccc2Sc2ccc3c(/C=C/c4ccccn4)n[nH]c3c2)cc1` [Example 35(l)]: in series [1], the inhibition at 0.05 µM was 90%.

For `O=C(NNC(=O)c1ccccc1Sc1ccc2c(/C=C/c3ccccn3)n[nH]c2c1)c1cccs1` [Example 35(m), 6-[2-((Thien-2-ylhydrazido)carbonyl)phenylsulfanyl]-3-E-[2-(pyridin-2-yl)ethenyl]-1H-indazole], in series [1], the affinity, expressed as Ki, was 0.04 nM. Moreover, in series [2] (setting [4]), the AUClast came out at 226 ng·h/mL and the “plasma half-life (T1/2)” value was 4.0 h. In series [2] (setting [10]), the AUClast amounted to 10 ng·h/mL and the Cmax stood at 7 ng/mL. Moreover, the concentration at 7 h in series [2] (setting [7]) stood at 17 ng/mL. Also, in series [2] (setting [9]), the concentration at 7 h came to 0 ng/mL.

For `O=C(Nc1cccc(C(=O)c2ccc3c(/C=C/c4ccccn4)n[nH]c3c2)c1)c1ccncc1` [Example 41(b), 6-[3-(Pyridin-4-ylcarboxamido)benzoyl]-3-E-[2-(pyridin-2-yl)ethenyl]-1H-indazole], in series [1], the affinity, expressed as Ki, was 0.26 nM. Also, the “plasma half-life (T1/2)” value in series [2] (setting [11]) came out at 4.7 h; in series [2] (setting [12]), 1.1 h. The compound further had an AUClast in series [2] (setting [12]) of 759 ng·h/mL. This compound returned an AUC(0-t) in series [2] (female, IP, 25 mg/kg, vehicle PEG400:H2O pH 2.3 60:40) of over 5870 ng·h/mL. The Cmax in series [2] (female, IP, 25 mg/kg, vehicle PEG400:H2O pH 2.3 60:40, read-out: Cmax) is over 1000 ng/mL. Moreover, the concentration at 7 h in series [2] (setting [13]) came out at 412 ng/mL; in series [2] (setting [14]), 6 ng/mL.

As for `O=C(c1cccc(NC(=O)C2CC2)c1)c1ccc2c(/C=C/c3ccccn3)n[nH]c2c1` [Example 41(k), 6-[3-(Cyclopropylcarboxanido)benzoyl]-3-E-[2-(pyridin-2-yl)ethenyl]-1H-indazole], in series [1], the Ki was 2.95 nM.

As to `Cn1nc(C(C)(C)C)cc1C(=O)Nc1cccc(C(=O)c2ccc3c(/C=C/c4ccccn4)n[nH]c3c2)c1` [Example 41(n), 6-[3-((3-t-Butyl-1-methyl-1H-pyrazol-5-yl)carboxamido)benzoyl]-3-E-[2-(pyridin-2-yl)ethenyl]-1H-indazole], the Ki in series [1] came out at 0.2 nM. In addition, in series [2] (setting [4]), the AUClast was 9408 ng·h/mL, the Cmax was found to be 1976 ng/mL and the “plasma half-life (T1/2)” value amounted to 3.2 h. In addition, in series [2] (setting [5]), the AUClast is 9066 ng·h/mL, the Cmax was determined as 2245 ng/mL and the “plasma half-life (T1/2)” value was found to be 1.9 h. The concentration at 7 h in series [2] (setting [7]) was found to be 465 ng/mL. For the same compound, the concentration at 7 h in series [2] (setting [8]) is 253 ng/mL.

In series [1], `CC(C)(C)c1ccc(C(=O)Nc2cccc(C(=O)c3ccc4c(/C=C/c5ccccn5)n[nH]c4c3)c2)cc1` [Example 41(s), 6-[3-(4-t-Butylbenzanido)benzoyl]-3-E-[2-(pyridin-2-yl)ethenyl]-1H-indazole] came in with a Ki of 0.23 nM.

For the compound `COc1cc(C(=O)Nc2cccc(C(=O)c3ccc4c(/C=C/c5ccccn5)n[nH]c4c3)c2)cc(Cl)n1` [Example 41(u), 6-[3-((2-Chloro-6-methoxypyridin-4-yl)carboxanido)benzoyl]-3-E-[2-(pyridin-2-yl)ethenyl]-1H-indazole], the Ki in series [1] is 0.08 nM. In series [2] (setting [10]), the AUClast was 875 ng·h/mL, the maximum concentration (Cmax) was found to be 224 ng/mL and the “plasma half-life (T1/2)” value is 5.6 h. Moreover, the concentration at 7 h in series [2] (setting [9]) amounted to 51 ng/mL.

Take `Cc1nc(/C=C/c2n[nH]c3cc(C(=O)c4cccc(NC(=O)c5ccccc5)c4)ccc23)cs1` [Example 42(c), 6-(3-Benzanidobenzoyl)-3-E-[2-(2-methylthiazol-4-yl)ethenyl]-1H-indazole]: in series [1], the inhibition at 0.05 µM is 95%. In addition, in series [3], the IC50 was in the range of 1 to 3 nM.

`O=C(Nc1cccc(C(=O)c2ccc3c(-c4nc5cccnc5[nH]4)n[nH]c3c2)c1)c1ccccc1` [Example 42(d), 6-(3-Benzaniidobenzoyl)-3-(3H-imidazo[4,5-b]pyridin-2-yl)-1H-indazole] registered a Ki in series [1] of 1.7 nM. For the same compound, the AUClast in series [2] (setting [11]) amounted to 1774 ng·h/mL; in series [2] (setting [12]), 46 ng·h/mL. For the same compound, the “plasma half-life (T1/2)” value in series [2] (setting [11]) is 1.4 h; in series [2] (setting [12]), “BLQ”. In addition, the concentration at 7 h turned out to be 31 ng/mL in series [2] (setting [13]) and 18 ng/mL in series [2] (setting [14]).
